# Measured values published in US20220125051A1, “PRE-HARVEST DESICCATION METHOD” (SYNGENTA CROP PROTECTION AG, priority 2019, published 2022).
# Read-outs that look alike come from different tables or passages of the source.
# How the values were obtained:
# Test in all cases: Post-emergence efficacy, Method A
# Assay type in all cases: in vivo
# Eleusine indica (ELEIN) = settings: Eleusine indica, post-emergence, 312 h, evaluated after 13 days
# Summary of the method: (§1)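 Plants raised 14 days from seed in standard soil in a glasshouse (24/16 °C day/night, 14 h light, 65% humidity) were sprayed with compound dissolved in acetone plus IF50 solvent/emulsifier (50 g/l solution), diluted with 0.25% or 1% Empicol ESC70 + 1% ammonium sulphate. Damage was scored visually after 13 days (0 = none, 100 = total).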
# [1] = system: Echinochloa crus-galli (ECHCG); settings: Echinochloa crus-galli, post-emergence, 312 h, evaluated after 13 days
# Summary of the method: as §1
# [2] = system: Ipomoea hederacea (IPOHE); settings: Ipomoea hederacea, post-emergence, 312 h, evaluated after 13 days
# Summary of the method: as §1
# [3] = system: Digitaria sanguinalis (DIGSA); settings: Digitaria sanguinalis, post-emergence, 312 h, evaluated after 13 days
# Summary of the method: as §1
# [4] = system: Chenopodium album (CHEAL); settings: Chenopodium album, post-emergence, 312 h, evaluated after 13 days
# Summary of the method: as §1
# Setaria faberi (SETFA) = settings: Setaria faberi, post-emergence, 312 h, evaluated after 13 days
# Summary of the method: as §1
# [5] = system: Euphorbia heterophylla (EPHHL); settings: Euphorbia heterophylla, post-emergence, 312 h, evaluated after 13 days
# Summary of the method: as §1
# Lolium perenne (LOLPE) = settings: Lolium perenne, post-emergence, 312 h, evaluated after 13 days
# Summary of the method: as §1
# [6] = system: Amaranthus palmeri (AMAPA); settings: Amaranthus palmeri, post-emergence, 312 h, evaluated after 13 days
# Summary of the method: as §1
# [7] = Application rate 500 g/Ha, 100=total damage to plant, 0=no damage to plant, read-out: Control of weed species after post-emergence application, ELEIN
# [8] = Application rate 500 g/Ha, 100=total damage to plant, 0=no damage to plant, read-out: Control of weed species after post-emergence application, ECHCG
# [9] = Application rate 500 g/Ha, 100=total damage to plant, 0=no damage to plant, read-out: Control of weed species after post-emergence application, IPOHE
# [10] = Application rate 500 g/Ha, 100=total damage to plant, 0=no damage to plant, read-out: Control of weed species after post-emergence application, DIGSA
# [11] = Application rate 500 g/Ha, 100=total damage to plant, 0=no damage to plant, read-out: Control of weed species after post-emergence application, CHEAL
# [12] = Application rate 500 g/Ha, 100=total damage to plant, 0=no damage to plant, read-out: Control of weed species after post-emergence application, SETFA
# [13] = Application rate 500 g/Ha, 100=total damage to plant, 0=no damage to plant, read-out: Control of weed species after post-emergence application, EPHHL
# [14] = Application rate 500 g/Ha, 100=total damage to plant, 0=no damage to plant, read-out: Control of weed species after post-emergence application, LOLPE
# [15] = Application rate 500 g/Ha, 100=total damage to plant, 0=no damage to plant, read-out: Control of weed species after post-emergence application, AMAPA
# [16] = Application Rate 500 g/Ha, Method A, read-out: Control of weed species after post-emergence application, ELEIN (100=total damage to plant; 0=no damage to plant)
# [17] = Application Rate 500 g/Ha, Method A, read-out: Control of weed species after post-emergence application, ECHCG (100=total damage to plant; 0=no damage to plant)
# [18] = Application Rate 500 g/Ha, Method A, read-out: Control of weed species after post-emergence application, IPOHE (100=total damage to plant; 0=no damage to plant)
# [19] = Application Rate 500 g/Ha, Method A, read-out: Control of weed species after post-emergence application, DIGSA (100=total damage to plant; 0=no damage to plant)
# [20] = Application Rate 500 g/Ha, Method A, read-out: Control of weed species after post-emergence application, CHEAL (100=total damage to plant; 0=no damage to plant)
# [21] = Application Rate 500 g/Ha, Method A, read-out: Control of weed species after post-emergence application, SETFA (100=total damage to plant; 0=no damage to plant)
# [22] = Application Rate 500 g/Ha, Method A, read-out: Control of weed species after post-emergence application, EPHHL (100=total damage to plant; 0=no damage to plant)
# [23] = Application Rate 500 g/Ha, Method A, read-out: Control of weed species after post-emergence application, LOLPE (100=total damage to plant; 0=no damage to plant)
# [24] = Application Rate 500 g/Ha, Method A, read-out: Control of weed species after post-emergence application, AMAPA (100=total damage to plant; 0=no damage to plant)
Compound,pest or weed control at 500 g/ha (Eleusine indica (ELEIN); [7]) [%],"pest or weed control at 500 g/ha [1, 8] [%]","pest or weed control at 500 g/ha [2, 9] [%]","pest or weed control at 500 g/ha [3, 10] [%]","pest or weed control at 500 g/ha [4, 11] [%]",pest or weed control at 500 g/ha (Setaria faberi (SETFA); [12]) [%],"pest or weed control at 500 g/ha [5, 13] [%]",pest or weed control at 500 g/ha (Lolium perenne (LOLPE); [14]) [%],"pest or weed control at 500 g/ha [6, 15] [%]",pest or weed control at 500 g/ha (Eleusine indica (ELEIN); [16]) [%],"pest or weed control at 500 g/ha [1, 17] [%]","pest or weed control at 500 g/ha [2, 18] [%]","pest or weed control at 500 g/ha [3, 19] [%]","pest or weed control at 500 g/ha [4, 20] [%]",pest or weed control at 500 g/ha (Setaria faberi (SETFA); [21]) [%],"pest or weed control at 500 g/ha [5, 22] [%]",pest or weed control at 500 g/ha (Lolium perenne (LOLPE); [23]) [%],"pest or weed control at 500 g/ha [6, 24] [%]"
COc1cnc(-c2cc[n+](CCCS(=O)(=O)[O-])nc2)cn1 [Compound A78],30,30,20,40,10,40,20,20,0,–,–,–,–,–,–,–,–,–
Cc1cc(F)cnc1-c1cc[n+](CCC(=O)O)nc1 [Compound A151],20,20,10,20,20,20,40,10,20,–,–,–,–,–,–,–,–,–
COc1ccnc(-c2cc[n+](CCS(=O)(=O)[O-])nc2)n1 [Compound A13],100,50,50,70,50,60,70,50,100,–,–,–,–,–,–,–,–,–
O=S(=O)([O-])CCCC[n+]1ccc(-c2ncccn2)cn1 [Compound A215],–,–,–,–,–,–,–,–,–,30,30,60,60,60,20,90,20,100
Cc1nccc(-c2cc[n+](CCS(=O)(=O)[O-])nc2)n1 [Compound A31],80,60,100,90,100,50,50,60,100,–,–,–,–,–,–,–,–,–
Cc1n[n+](CCC(=O)O)ccc1-c1ccccn1 [Compound A145],0,0,10,10,10,0,10,0,10,–,–,–,–,–,–,–,–,–
CO[N-]C(=O)C[n+]1ccc(-c2ncccn2)cn1 [Compound A219],–,–,–,–,–,–,–,–,–,100,40,60,70,80,90,90,70,100
Nc1cc(-c2cc[n+](CCC(=O)O)nc2)nc(N)n1 [Compound A188],–,–,–,–,–,–,–,–,–,20,50,20,40,50,30,30,20,90
CC(C(=O)OC(C)(C)C)[n+]1ccc(-c2ncccn2)cn1 (stereo not drawn) [Compound A193],–,–,–,–,–,–,–,–,–,30,10,30,30,60,10,60,10,70
O=C(O)CC[n+]1ccc(-c2ncc(C(F)(F)F)cc2Cl)cn1 [Compound A197],–,–,–,–,–,–,–,–,–,10,0,10,20,10,0,10,0,100
O=C(O)CC[n+]1ccc(-c2ccc(C(F)(F)F)cn2)cn1 [Compound A200],–,–,–,–,–,–,–,–,–,30,40,10,40,70,50,70,40,100
O=S(=O)([O-])OCCC[n+]1ccc(-c2ncccn2)cn1 [Compound A216],–,–,–,–,–,–,–,–,–,100,70,60,100,90,90,100,70,100
Cc1cnc(-c2cc[n+](CCS(=O)(=O)[O-])nc2)c(F)c1 [Compound A135],70,50,30,30,20,50,50,60,60,–,–,–,–,–,–,–,–,–
Nc1cnc(-c2cc[n+](CCC(=O)[O-])nc2)nc1 [Compound A44],20,30,20,40,10,60,20,20,40,–,–,–,–,–,–,–,–,–
Cc1cc(Cl)cnc1-c1cc[n+](CCCS(=O)(=O)[O-])nc1 [Compound A102],10,10,0,10,50,10,20,10,20,–,–,–,–,–,–,–,–,–
Cc1cnc(-c2cc[n+](CCC(=O)O)nc2)nc1 [Compound A36],100,90,30,90,90,100,90,80,100,–,–,–,–,–,–,–,–,–
